Assay results from article PMC10489911 (2023).

Legend:
[1] = system: AG3(T2AG3)3 (G4-Tel, telomeric G4) (DNA, G4) AGGGTTAGGGTTAGGGTTAGGG; assay: CD melting at 295 nm; conditions: K+ 100 mM KCl, plus potassium phosphate; 20 mM phosphate, pH 6.8; 2 equivalents of ligand; Tm 56.1 alone
[2] = system: AG3(T2AG3)3 (G4-Tel, telomeric G4) (DNA, G4) AGGGTTAGGGTTAGGGTTAGGG; assay: UV-Vis titration; conditions: K+ 100 mM KCl, plus potassium phosphate, 20 mM phosphate, pH 6.8, ligand 2 μM
[3] = system: AG3(T2AG3)3 (G4-Tel, telomeric G4) (DNA, G4) AGGGTTAGGGTTAGGGTTAGGG; assay: G4-FID fluorescence displacement; conditions: K+ 100 mM KCl, plus potassium phosphate, PBS pH 6.8, 25 °C, thiazole orange displaced

## C[n+]1ccc(-c2cc3c(cc2-c2cc[n+](C)cc2)-c2nc-3c(-c3ccccc3)c3ccc([nH]3)c(-c3ccccc3)c3nc(c(-c4ccccc4)c4ccc([nH]4)c2-c2ccccc2)-c2cc(-c4cc[n+](C)cc4)c(-c4cc[n+](C)cc4)cc2-3)cc1
[1]
  ΔTm: 2.3 °C
[2]
  Kb: 6.01 ± 1.11 × 10^6 M^−1
[3]; table prints 0.90 ± 0.04, its ratio 2.01 fits 0.99
  DC50: 0.99 µM

## C[n+]1ccc(-c2cc3c(cc2-c2cc[n+](C)cc2)-c2nc-3c(-c3ccccc3)c3ccc([n-]3)c(-c3ccccc3)c3nc(c(-c4ccccc4)c4ccc([n-]4)c2-c2ccccc2)-c2cc(-c4cc[n+](C)cc4)c(-c4cc[n+](C)cc4)cc2-3)cc1.[Ni+2]
[1]
  ΔTm: 8.5 °C
[2]; ligand aggregates in buffer
  Kb: 3.71 ± 1.28 × 10^6 M^−1
[3]; text prints 1.04
  DC50: 1.02 ± 0.06 µM

## C[n+]1ccc(-c2cc3c(cc2-c2cc[n+](C)cc2)-c2nc-3c(-c3ccccc3)c3ccc([n-]3)c(-c3ccccc3)c3nc(c(-c4ccccc4)c4ccc([n-]4)c2-c2ccccc2)-c2cc(-c4cc[n+](C)cc4)c(-c4cc[n+](C)cc4)cc2-3)cc1.[Zn+2]
[1]
  ΔTm: 7.4 °C
[2]; ligand aggregates in buffer
  Kb: 7.05 ± 1.31 × 10^6 M^−1
[3]
  DC50: 0.42 ± 0.08 µM
